From patent publication US6133299A, “Methods for treating neurodegenerative diseases and disorders using N-(2,6-disubstituted aromatic)-N'-pyridinyl ureas and other anticonvulsant compounds” (Warner-Lambert Company, priority 1993, dated 2000)
Entries after “also recorded” stand apart in the source; their conditions may differ.

Legend:
[1] = system: Neuronal/Glial Cortical Cultures; assay: Hypoxia-induced lactate dehydrogenase release (cell injury) in neuronal/glial cortical cultures; type: cell-based, rat (Sprague Dawley); conditions: Rattus norvegicus, read-out: % Inh (percent inhibition of the release of lactate dehydrogenase in comparison to hypoxic control cultures)
Procedure: An assay was conducted to compare the inhibitory action of various compounds which are the subject of the present invention. The assay measured the oxygen deprivation-induced neuronal cell death from various cortical cultures. Lactate dehydrogenase (LDH) is a cytosolic enzyme that is only present in the extracellular medium if cell membranes rupture, indicating cell death. Therefore, LDH release into the culture medium is a convenient assay of cell death. The results of Table 3 indicate that each of the compounds tested decreased neuronal cell death from hypoxia in vitro.
The uteri of Sprague Dawley rats in their 18th day of fetal gestation were removed under halothane anesthesia and placed in a chilled bath of magnesium and calcium-free Hank's balanced salt solution (HBSS). Cortical brain hemispheres were removed from individual fetuses and digested in 0.1% trypsin in HBSS for 15 minutes at room temperature. Digested tissue was washed three times with HBSS then dissociated into a single cell suspension by trituration with a glass pipette. […] One hundred microliters of this cell suspension was pipetted into individual wells of 96-well tissue culture plates previously coated with poly-L-lysine, then stored in a humidified incubator (37° C., 3% CO2). Glial cell growth was stopped by the addition of 100 μL of 45% DME, 45% HAM F12, and 10% Horse serum (10/0 DME/F12) containing 15 μg/mL of 5-fluoro-2-deoxyuridine and 35 μg/mL of uridine, 3 days after the initial plating. Cultures were fed at 2- or 3-day intervals thereafter by replacing 100 μL of spent medium with an identical volume of fresh 10/0 DME/F12.
Sixteen-day-old cultures were prepared for experiments by removing growth medium from each culture well and rinsing once with 250 μL of Mg^++ -free HBSS containing 1.8 mM Ca^++ and 1 g/L D-glucose (0 Mg-HBSS) Control and test agent solutions, prepared using 0 Mg-HBSS medium, were dispensed in 50 μL aliquots into individual test wells (Total volume/well=50 μL). All liquid medium preparations to this point were equilibrated with […], 5% CO2. Plates were placed into a 37° C., humidified, triple-gas incubator with O2 and CO2 levels maintained at 1% and 10%, respectively. Plates were removed after 7.5 hours of oxygen deprivation and restored to normoxic conditions (20% O2 /10% CO2, 37° C.) following a 50 μL addition to each well of appropriate control or test agent solutions containing 1.8 mM Ca^++, 1.6 mM Mg^++, and 7.0 g/L D-glucose. Final medium concentrations of 1.8 mM Ca^++, 0.8 mM Mg^++, and 4 g/L D-glucose were present during the reoxygenation period.
Medium concentrations of lactate dehydrogenase (LDH), a cytosolic enzyme normally retained by cells but released upon cell death, were determined for each well following an additional 16.5-hour normoxic exposure period. Individual 25 μL medium specimens were collected from each well and placed into wells of a clean 96-well microtiter plate containing 225 μL of 0.1 M KPO4 buffer (pH=7.5 at 25° C.) and 30 μg NADH (reduced […] adenine dinucleotide). After 10-minute incubation at 37° C., 30 μL of 2.4 mM sodium pyruvate was added to each well and plates were gently shaken to mix solution. Plates were immediately placed into a Multiscan MCC/340 plate reader and scanned for […] (excitation at 340 nm) for 1 minute at 5-second intervals. A kinetic analysis of the change in medium absorbance resulting from shifts in NADH concentrations was used, in combination with factors to correct for temperature, light path, and volume adjustments to determine medium LDH concentrations (IU/mL). Normoxic control baseline LDH levels were subtracted from both hypoxic control and test agent values prior to determining test agent effectiveness in preventing oxygen deprivation-induced injury.

Hippocampal Slices [2] = assay: Recovery of synaptic activity (EPSP) in hippocampal slices after hypoxia-hypoglycemia (Example 4); type: cell-based, rat (male Wistar); conditions: for recovery of EPSPs, overall effect: concentrations tested in Table 2
Procedure: Young male Wistar rats (150 to 250 g) were anesthetized with ketamine (200 mg/kg IP) and ether and were perfused transcardially with cold, oxygenated, low sodium-containing physiological buffer solution (252 mM sucrose, 3.5 mM KCl, 1.0 mM MgSO4, 20 mM CaC1, 26 mM NaHCO3, 1.25 mM NaH2 PO4, and 10 mM glucose) with 50 μM ketamine added. Brains were removed and hippocampi carefully excised. Hippocampi were sliced transversely at 450 μm and transferred into cold (4° C.) low-sodium buffer solution gassed with 95% O2, 5% CO2 at 31° C. After 45 minutes slices were transferred to oxygenated normal physiological solution (126 mM NaCl, 3.5 mM KCl, 1.0 mM MgSO4, 2.0 mM CaCl2, 20 mM NaHCO3, 1.25 mM NaH2 PO4, and 10 mM glucose) at 31° C. for at least 1 hour before experiments began. After preincubation, slices were transferred to a heated (36° C.), gassed incubation chamber where they were continuously superfused with gassed normal physiological solution. Evoked extracellular synaptic potentials (EPSPs) were obtained using glass micropipettes placed approximately 100 μm into the slice. Electrical stimulation was applied once per minute to the stratum radiatum by insulated paired nichrome wires (60 μm diameter). Stimuli consisted of 150 μA pulses lasting 0.4 msec. […] Data from a slice were used only if EPSP amplitude was greater than 2.0 mV before hypoxia-hypoglycemia.
(§1) Evoked potentials were recorded and analyzed with a digital computer interface. Experiments were started by recording for several minutes under normal conditions (95% O2, 5% CO2, 10 mM glucose). Then drug was added to the superfusion solution (or normal solution was continued in control experiments). After 10 minutes of drug superfusion, hypoxia-hypoglycemia was induced by switching to superfusion solution containing added drug with low glucose (2 mM) that was equilibrated with 95% N2 and 5% CO2. At the same time the slice chamber gas was switched to 95% N2 and 5% CO2. Hypoxia-hypoglycemia was continued for 12 minutes. After 12 minutes, 95% O2 and 10 mM glucose were returned to the slices and the superfusing solution. Following 15 minutes of reoxygenation, the experiment was ended. EPSPs were considered recovered if they returned to at least half of their original amplitude. The percentage of slices with recovered EPSPs were calculated for each condition.
This study was identical in design to Example 3 except that during the hypoxic period of 12 minutes, glucose was reduced from 10 mM to 2 mM rather than from 10 mM to zero as in Example 3.

[3] = system: voltage-dependent sodium channels; conditions: cited from earlier work
cytokinin activity = conditions: cited from earlier work
[4] = system: neuroprotective capabilities; assay: Neuroprotective capabilities in vitro (general statement); type: cell-based
Hippocampal Slices [5] = assay: Effect on synaptic potentials / presynaptic action potential in slices before hypoxia; type: cell-based, rat (male Wistar)
Procedure: Young male Wistar rats (150 to 250 g) were anesthetized with ketamine (200 mg/kg IP) and ether and were perfused transcardially with cold, oxygenated, low sodium-containing physiological buffer solution (252 mM sucrose, 3.5 mM KCl, 1.0 mM MgSO4, 20 mM CaC1, 26 mM NaHCO3, 1.25 mM NaH2 PO4, and 10 mM glucose) with 50 μM ketamine added. Brains were removed and hippocampi carefully excised. Hippocampi were sliced transversely at 450 μm and transferred into cold (4° C.) low-sodium buffer solution gassed with 95% O2, 5% CO2 at 31° C. After 45 minutes slices were transferred to oxygenated normal physiological solution (126 mM NaCl, 3.5 mM KCl, 1.0 mM MgSO4, 2.0 mM CaCl2, 20 mM NaHCO3, 1.25 mM NaH2 PO4, and 10 mM glucose) at 31° C. for at least 1 hour before experiments began. After preincubation, slices were transferred to a heated (36° C.), gassed incubation chamber where they were continuously superfused with gassed normal physiological solution. Evoked extracellular synaptic potentials (EPSPs) were obtained using glass micropipettes placed approximately 100 μm into the slice. […]
Evoked potentials were recorded and analyzed with a digital computer interface. […] The percentage of slices with recovered EPSPs were calculated for each condition.
Excitatory synaptic potential (EPSP) amplitude was measured before and during drug treatment in the 10-minute period preceding reduced oxygen and glucose. […]

[6] = in vivo; cited from earlier work
Hippocampal Slices [7] = assay: Recovery of synaptic activity (EPSP) in hippocampal slices after hypoxia-hypoglycemia (Example 3); type: cell-based, rat (male Wistar); conditions: for percentage of slices that recovered EPSPs: control approximately 5%
Procedure: An in vitro model with rat hippocampal brain slices exposed to hypoxia-hypoglycemia was used to simulate ischemia. Neuroprotection was measured by the recovery of excitatory postsynaptic potentials after reoxygenation.
Young male Wistar rats (150 to 250 g) were anesthetized with ketamine (200 mg/kg IP) and ether and were perfused transcardially with cold, oxygenated, low sodium-containing physiological buffer solution (252 mM sucrose, 3.5 mM KCl, 1.0 mM MgSO4, 20 mM CaC1, 26 mM NaHCO3, 1.25 mM NaH2 PO4, and 10 mM glucose) with 50 μM ketamine added. Brains were removed and hippocampi carefully excised. Hippocampi were sliced transversely at 450 μm and transferred into cold (4° C.) low-sodium buffer solution gassed with 95% O2, 5% CO2 at 31° C. After 45 minutes slices were transferred to oxygenated normal physiological solution (126 mM NaCl, 3.5 mM KCl, 1.0 mM MgSO4, 2.0 mM CaCl2, 20 mM NaHCO3, 1.25 mM NaH2 PO4, and 10 mM glucose) at 31° C. for at least 1 hour before experiments began. After preincubation, slices were transferred to a heated (36° C.), gassed incubation chamber where they were continuously superfused with gassed normal physiological solution. Evoked extracellular synaptic potentials (EPSPs) were obtained using glass micropipettes placed approximately 100 μm into the slice. Electrical stimulation was applied once per minute to the stratum radiatum by insulated paired nichrome wires (60 μm diameter). Stimuli consisted of 150 μA pulses lasting 0.4 msec. The 150 μA stimulus usually gave nearly a maximal EPSP (excitatory postsynaptic potential) amplitude. Data from a slice were used only if EPSP amplitude was greater than 2.0 mV before hypoxia-hypoglycemia.
as §1

O=C(Nc1ccncc1)Nc1c(Cl)cccc1Cl [N-(2,6-Dichlorophenyl)-N'-4-pyridinyl urea]
inhibition at 30 µM [1]: 62% | inhibition at 100 µM [1]: 88%

COCCOC(=O)C1=C(C)NC(C)=C(C(=O)OC(C)C)C1c1cccc([N+](=O)[O-])c1 (centres unmarked) [Nimodipine, nimodipine]
prevention of ischemic damage / loss of EPSPs (Hippocampal Slices [2]; 1 μM): failed to prevent loss of EPSPs | Number Slices Recovered / Number Slices Tested (≥50% EPSP amplitude recovery after reoxygenation) (Hippocampal Slices [2]; 1.0 μM): 1/9 | concentration at which it interacts with sodium channels [3]: greater than 10 μM

O=C(Nc1ccncc1)Nc1ccc(Cl)c(Cl)c1 [N-(3,4-dichlorophenyl)-N'-4-pyridinyl urea]
cytokinin activity (cytokinin activity): show such activity

Cc1cccc(C)c1NC(=O)Nc1ccncc1 [N-(2,6-dimethylphenyl)-N'-4-pyridinyl urea]
inhibition at 30 µM [1]: 106% | inhibition at 100 µM [1]: 81%

Nc1nnc(-c2cccc(Cl)c2Cl)c(N)n1 [Lamotrigine, lamotrigine]
neuroprotective capabilities [4]: shown in vitro to have neuroprotective capabilities | inhibition at 30 µM [1]: 68% | inhibition at 100 µM [1]: 83%

CCN(CC)CC(=O)Nc1c(C)cccc1C [Lidocaine, lidocaine]
Number Slices Recovered / Number Slices Tested (≥50% EPSP amplitude recovery after reoxygenation) (Hippocampal Slices [2]; 50 μM): 5/9 | Number Slices Recovered / Number Slices Tested (≥50% EPSP amplitude recovery after reoxygenation) (Hippocampal Slices [2]; 200 μM): 9/10 | protection from loss of EPSPs (Hippocampal Slices [2]; 200 μM): almost complete protection | recovery of EPSPs, overall effect (Hippocampal Slices [2]): improves recovery of EPSPs at both concentrations tested | recovery of EPSPs, overall effect (Hippocampal Slices [2]; listed as lidocaine): enhanced recovery of EPSPs | effect on presynaptic action potential and EPSPs (Hippocampal Slices [5]; 500 μM): reversibly reduced both presynaptic action potential and EPSPs | neuroprotective capabilities [4]: shown in vitro to have neuroprotective capabilities | peripheral hypotensive effects [6]: peripheral hypotensive effects | action on voltage-dependent sodium channels [3]: more selective for sodium channels

NC(=O)N1c2ccccc2C=Cc2ccccc21 [Carbamazepine, carbamazepine]
Number Slices Recovered / Number Slices Tested (≥50% EPSP amplitude recovery after reoxygenation) (Hippocampal Slices [2]; 20 μM): 2/9 | Number Slices Recovered / Number Slices Tested (≥50% EPSP amplitude recovery after reoxygenation) (Hippocampal Slices [2]; 50 μM): 4/10 | neuroprotective capabilities [4]: shown in vitro to have neuroprotective capabilities | inhibition at 30 µM [1]: 53% | inhibition at 100 µM [1]: 95% | action on voltage-dependent sodium channels [3]: more selective for sodium channels

Cc1cccc(Cl)c1NC(=O)Nc1ccncc1 [N-(2-chloro-6-methylphenyl)-N'-4-pyridinyl urea]
effect on EPSP / presynaptic action potential amplitude (Hippocampal Slices [5]; concentrations used, before hypoxia): none of the concentrations tested reduced EPSP or presynaptic action potential amplitude | inhibition at 30 µM [1]: 101% | inhibition at 100 µM [1]: 80% | action on voltage-dependent sodium channels [3]: modulates voltage-dependent sodium channels of nerve cell membranes; also recorded: modulator of neuronal voltage-gated sodium ion channels | Number Slices Recovered / Number Slices Tested (≥50% EPSP amplitude recovery after reoxygenation) (Hippocampal Slices [7]; 0.5 μM): 0/8 | changes from hypoxia (Hippocampal Slices [7]; 0.5 μM): not different from control treatments | Number Slices Recovered / Number Slices Tested (≥50% EPSP amplitude recovery after reoxygenation) (Hippocampal Slices [7]; 2 μM): 3/8 | mean EPSP amplitude after hypoxia (Hippocampal Slices [7]; 2 μM): near significance | protection / improved recovery of EPSPs (Hippocampal Slices [7]; 2 μM and 20 μM): significant protection of hippocampal slices from irreversible loss of synaptic potentials; also recorded: improves recovery of EPSPs | percentage of slices that recovered EPSPs (Hippocampal Slices [7]; 2 μM): 37% | Number Slices Recovered / Number Slices Tested (≥50% EPSP amplitude recovery after reoxygenation) (Hippocampal Slices [7]; 20 μM): 9 out of 10 | mean EPSP amplitude after hypoxia (Hippocampal Slices [7]; 20 μM): significant with a high degree of confidence; also recorded: almost complete recovery of EPSPs | protection from loss of EPSPs (Hippocampal Slices [7]; 20 μM): almost complete protection from loss of EPSPs | percentage of slices that recovered EPSPs (Hippocampal Slices [7]; 20 μM): 90% | Number Slices Recovered / Number Slices Tested (≥50% EPSP amplitude recovery after reoxygenation) (Hippocampal Slices [7]; 20 μM, listed as Test drug): 9/10 | mean EPSP amplitude after hypoxia, overall effect (Hippocampal Slices [7]; concentration-related, 0.5-20 μM): significantly increased the mean EPSP amplitude after hypoxia; also recorded: increased EPSP amplitude following hypoxia in a concentration-dependent manner

Cc1cccc(Cl)c1NC(=O)/C=C1\SCC(=O)N1C [ralitoline]
neuroprotective capabilities [4]: shown in vitro to have neuroprotective capabilities

O=C(Nc1cccnc1)Nc1ccc(Cl)c(Cl)c1 [N-(3,4-dichlorophenyl)-N'-3-pyridinyl urea]
cytokinin activity (cytokinin activity): show such activity
